Source: article PMC6249675 (Structure (London, England : 1993), 2018)

Columns and labels:
Rac1 [1] = biological target: T1, Rac1 (Homo sapiens, UniProt P63000); test: strong anion exchange chromatography of co-purified nucleotide; assay type: binding; settings: co-purified from E. coli
Rnd3 = biological target: T2, Rnd3 (Homo sapiens, UniProt P61587); test: as above; assay type: binding; settings: co-purified from E. coli; not hydrolysed
T2 sequence (P61587 19-200): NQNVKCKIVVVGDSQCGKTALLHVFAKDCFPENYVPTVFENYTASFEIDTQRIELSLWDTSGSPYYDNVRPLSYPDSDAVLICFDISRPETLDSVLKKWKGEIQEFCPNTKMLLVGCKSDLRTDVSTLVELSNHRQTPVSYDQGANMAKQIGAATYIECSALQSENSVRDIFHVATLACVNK

Rac1 [2] = biological target: T1, Rac1; test: GTP hydrolysis followed by strong anion exchange chromatography; assay type: biochemical; settings: 5 mM GTP, 5 mM MgCl2, room temperature, 24 h

Compound	strong anion exchange chromatography of co-purified nucleotide (Rac1 [1])	strong anion exchange chromatography of co-purified nucleotide (Rnd3)	GTP hydrolysis followed by strong anion exchange chromatography (Rac1 [2])
Nc1nc2c(ncn2[C@@H]2O[C@H](COP(=O)(O)OP(=O)(O)O)[C@@H](O)[C@H]2O)c(=O)[nH]1 [GDP]	wild-type Rac1 which, like other active GTPases, is bound predominantly to GDP		
Nc1nc2c(ncn2[C@@H]2O[C@H](COP(=O)(O)OP(=O)(O)OP(=O)(O)O)[C@@H](O)[C@H]2O)c(=O)[nH]1 [GTP]		N-GTPase is similar to the pseudoGTPase Rnd3, which binds only GTP (Fig. 4d)	Rac1 (preloaded with GTP) exhibits complete hydrolysis of GTP to GDP in identical conditions
